According to US20260042769A1, “TRIARYL AGONISTS OF ALPHA-2 ADRENERGIC RECEPTORS” (ALCEPTOR THERAPEUTICS, INC., priority 2023, published 2026):

Target: T1, human ADRA2B receptor (Homo sapiens, UniProt P18089)
T1 construct: expressed in transfected cells
T1 sequence (P18089 1-450): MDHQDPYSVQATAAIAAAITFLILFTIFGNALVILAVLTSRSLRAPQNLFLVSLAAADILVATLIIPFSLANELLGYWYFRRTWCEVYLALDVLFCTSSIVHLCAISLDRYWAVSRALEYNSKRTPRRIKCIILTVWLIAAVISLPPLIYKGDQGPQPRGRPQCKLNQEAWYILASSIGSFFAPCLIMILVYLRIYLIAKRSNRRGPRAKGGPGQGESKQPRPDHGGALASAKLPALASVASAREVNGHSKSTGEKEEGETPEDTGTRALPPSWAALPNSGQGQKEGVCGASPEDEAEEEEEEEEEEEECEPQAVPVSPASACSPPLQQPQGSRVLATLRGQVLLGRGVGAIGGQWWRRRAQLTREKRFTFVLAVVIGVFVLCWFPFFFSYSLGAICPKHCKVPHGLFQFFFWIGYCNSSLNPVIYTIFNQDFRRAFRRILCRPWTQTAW
Test: ADRA2B arrestin agonist assay
Format: cell-based
Conditions: CHO-K1 cells stably expressing human ADRA2B; read-out: Beta-Arrestin - Human Alpha2B EC50
Method in brief: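 CHO-K1 cells stably expressing human ADRA2B, thawed from frozen stock and plated overnight, were treated with agonist for 2 h at 37 °C. Arrestin recruitment detected by luminescence after 2 h with detection reagents at room temperature.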

| EC50 [nM] | Compound |
| --- | --- |
| 50 to 500 | Cc1cc(CC(c2c[nH]cn2)c2cccc(Cl)c2F)ncn1 (centres unmarked) [Compound 163, 4-[2-(3-chloro-2-fluorophenyl)-2-(4-imidazolyl)ethyl]-6-methylpyrimidine] |
| < 10 | Cc1cccc(C(Cc2cnc3n[nH]cc3c2)c2c[nH]cn2)c1C (centres unmarked) [Compound 287, 5-[2-(4-imidazolyl)-2-(2,3-xylyl)ethyl]-2H-1,2,7-triazaindene-formic acid (1/1)] |
| < 10 | Cc1cccc([C@@H](Cc2ccnc(C(C)(C)F)n2)c2c[nH]cn2)c1C [Compound 205, 4-[(R)-2-(4-imidazolyl)-2-(2,3-xylyl)ethyl]-2-(1-fluoro-1-methylethyl)pyrimidine] |
| 50 to 500 | COc1c(C)cccc1C(Cc1cn(C)nn1)c1c[nH]cn1 (centres unmarked) [Compound 260, 4-[2-(4-imidazolyl)-2-(2-methoxy-3-tolyl)ethyl]-1-methyl-1H-1,2,3-triazole] |
| > 500 | COc1c(C)cccc1C(Cc1cc[nH]n1)c1c[nH]cn1 (centres unmarked) [Compound 242, 3-[2-(4-imidazolyl)-2-(2-methoxy-3-tolyl)ethyl]pyrazole] |
| > 500 | Cn1nccc1CC(c1c[nH]cn1)c1cccc2c1OCCCO2 (centres unmarked) [Compound 299, 5-[2-(3,4-dihydro-2H-1,5-benzodioxepin-6-yl)-2-(4-imidazolyl)ethyl]-1-] |
| 10 to 50 | Cc1cccc(C(Cc2ccn3ccnc3c2)c2c[nH]cn2)c1C (centres unmarked) [Compound 403, 4-[2-(1,3a-diaza-6-indenyl)-1-(2,3-xylyl)ethyl]imidazole] |
| < 10 | Cc1nccc(CC(c2c[nH]cn2)c2cccc3ccn(C)c23)n1 (centres unmarked) [Compound 342, 4-[2-(4-imidazolyl)-2-(1-methyl-7-indolyl)ethyl]-2-methylpyrimidine] |
| 10 to 50 | COc1nccc(CC(c2cccc(C)c2)c2c[nH]cn2)n1 (centres unmarked) [Compound 337, 4-[2-(4-imidazolyl)-2-(m-tolyl)ethyl]-2-methoxypyrimidine] |
| < 10 | Cc1cc(CC(c2c[nH]cn2)c2cccc(C)c2C)c(F)cn1 (centres unmarked) [Compound 315, 4-[2-(5-fluoro-2-methyl-4-pyridyl)-1-(2,3-xylyl)ethyl]imidazole] |
| 10 to 50 | Cc1cccc(CC(c2c[nH]cn2)c2cccc3ccn(C)c23)n1 (centres unmarked) [Compound 284, 4-[1-(1-methyl-7-indolyl)-2-(6-methyl-2-pyridyl)ethyl]imidazole] |
| 50 to 500 | c1cc2c(c([C@@H](Cc3cocn3)c3c[nH]cn3)c1)OCC2 [Compound 371, 4-[(R)-2-(2,3-dihydro-1-benzofuran-7-yl)-2-(4-imidazolyl)ethyl] 1,3-oxazole] |
| 10 to 50 | Cc1cccc([C@H](Cc2ccn(C3COC3)n2)c2c[nH]cn2)c1C [Compound 296, 3-[(S)-2-(4-imidazolyl)-2-(2,3-xylyl)ethyl]-1-(3-oxetanyl)pyrazole] |
| 10 to 50 | Cc1cccc(C[C@@H](c2c[nH]cn2)c2cccc3c2OCC3)n1 [Compound 265, 4-[(R)-1-(2,3-dihydro-1-benzofuran-7-yl)-2-(6-methyl-2-pyridyl)ethyl]imida-zole] |
| < 10 | COCc1nccc(C[C@@H](c2c[nH]cn2)c2cccc(C)c2C)n1 [Compound 345, 4-[(R)-2-(4-imidazolyl)-2-(2,3-xylyl)ethyl]-2-(methoxymethyl)pyrimidine] |
| < 10 | COc1cc(CC(c2c[nH]cn2)c2cccc(C)c2C)nc(OC)n1 (centres unmarked) [Compound 307, 4-[2-(4-imidazolyl)-2-(2,3-xylyl)ethyl]-2,6-dimethoxypyrimidine] |
| 50 to 500 | Cc1cccc([C@@H](Cc2ccnn2C)c2c[nH]cn2)c1F [Compound 246, 5-[(R)-2-(2-fluoro-3-tolyl)-2-(4-imidazolyl)ethyl]-1-methylpyrazole] |
| > 500 | Cc1cccc([C@@H](Cc2cn(C)nn2)c2c[nH]cn2)c1C [Compound 239, 4-[(R)-2-(4-imidazolyl)-2-(2,3-xylyl)ethyl]-1-methyl-1H-1,2,3-triazole] |
| < 10 | Cc1cccc([C@H](Cc2ccnn2C(F)F)c2c[nH]cn2)c1C [Compound 281, 5-[(S)-2-(4-imidazolyl)-2-(2,3-xylyl)ethyl]-1-(difluoromethyl)pyrazole] |
| < 10 | Cc1cccc(C(Cc2ccc(F)c(CO)n2)c2c[nH]cn2)c1C (centres unmarked) [Compound 318, {3-fluoro-6-[2-(4-imidazolyl)-2-(2,3-xylyl)ethyl]-2-pyridyl}methanol] |
| > 500 | Cc1cccc([C@H](Cc2cccc(C(C)(C)O)n2)c2c[nH]cn2)c1C [Compound 305, 2-{6-[(S)-2-(4-imidazolyl) 2-(2,3-xylyl)ethyl]-2-pyridyl}-2-propanol] |

| EC50 [nM] | Compound |
| --- | --- |
| 10 to 50 | c1cc2c(c([C@H](Cc3cocn3)c3c[nH]cn3)c1)OCCO2 [Compound 384, 4-[(S)-2-(2,3-dihydro-1,4-benzodioxin-5-yl)-2-(4-imidazolyl)ethyl]-1,3-oxazole] |
| 10 to 50 | COc1c(C)cccc1[C@H](Cc1ccnn1C)c1c[nH]cn1 [Compound 382, 5-[(S)-2-(4-imidazolyl)-2-(2-methoxy-3-tolyl)ethyl]-1-methylpyrazole] |
| 10 to 50 | COc1ncncc1CC(c1c[nH]cn1)c1cccc(C)c1C (centres unmarked) [Compound 275, 5-[2-(4-imidazolyl)-2-(2,3-xylyl)ethyl]-4-methoxypyrimidine] |
| < 10 | Cc1cccc(C(Cc2ccc(N(C)C)nc2)c2c[nH]cn2)c1C (centres unmarked) [Compound 292, N,N-dimethyl{5-[2-(4-imidazolyl)-2-(2,3-xylyl)ethyl]-2-pyridyl}amine] |
| 50 to 500 | Cn1nccc1CC(c1c[nH]cn1)c1cccc2c1cnn2C (centres unmarked) [Compound 269, 4-[1-(4-imidazolyl)-2-(1-methyl-5-pyrazolyl)ethyl]-1-methyl-1H-indazole] |
| > 500 | COc1nccc(C[C@H](c2c[nH]cn2)c2cccc(F)c2OC)n1 [Compound 183, 4-[(S)-2-(3-fluoro-2-methoxyphenyl)-2-(4-imidazolyl)ethyl]-2-methoxypyrimidine] |
| 10 to 50 | Cc1cccc(CC(c2c[nH]cn2)c2cccc(C)c2F)n1 (centres unmarked) [Compound 259, 4-[1-(2-fluoro-3-tolyl)-2-(6-methyl-2-pyridyl)ethyl]imida-zole] |
| < 10 | COc1cc(CC(c2c[nH]cn2)c2cccc3c2OCC3)ccn1 (centres unmarked) [Compound 314, 4-[1-(2,3-dihydro-1-benzofuran-7-yl)-2-(2-methoxy-4-pyridyl)ethyl]imidazole] |
| 10 to 50 | Cc1nc(C[C@@H](c2c[nH]cn2)c2cccc(C)c2C)co1 [Compound 373, 4-[(R)-2-(4-imidazolyl)-2-(2,3-xylyl)ethyl]-2-methyl-1,3-oxazole] |
| 10 to 50 | COc1nccc(CC(c2c[nH]cn2)c2ccccc2OC2CC2)n1 (centres unmarked) [Compound 195, 4-[2-(o-cyclopropoxyphenyl)-2-(4-imidazolyl)ethyl]-2-methoxypyrimidine] |
| < 10 | COCc1nccc(CC(c2c[nH]cn2)c2cccc(C)c2C)n1 (centres unmarked) [Compound 176, 4-[2-(4-imidazolyl)-2-(2,3-xylyl)ethyl]-2-(methoxymethyl) pyrimidine] |
| > 500 | Cc1cccc([C@H](Cc2cccc(CO)n2)c2c[nH]cn2)c1C [Compound 147, {6-[(S)-2-(4-imidazolyl)-2-(2,3-xylyl)ethyl]-2-pyridyl}methanol] |
| > 500 | COCc1nccc(C[C@H](c2c[nH]cn2)c2cccc(C)c2C)n1 [Compound 346, 4-[(S)-2-(4-imidazolyl)-2-(2,3-xylyl)ethyl]-2-(methoxymethyl)pyrimidine] |
| 50 to 500 | COc1c(C)cccc1C(Cc1cccc(C)n1)c1c[nH]cn1 (centres unmarked) [Compound 389, 4-[1-(2-methoxy-3-tolyl)-2-(6-methyl-2-pyridyl)ethyl]imida-zole-formic acid (1/1)] |
| < 10 | Cc1cccc([C@@H](Cc2ccnc(CF)n2)c2c[nH]cn2)c1C [Compound 153, 4-[(R)-2-(4-imidazolyl)-2-(2,3-xylyl)ethyl]-2-(fluoromethyl) pyrimidine] |
| < 10 | Cc1cccc([C@H](Cc2ccn(C(F)F)n2)c2c[nH]cn2)c1C [Compound 280, 3-[(S)-2-(4-imidazolyl)-2-(2,3-xylyl)ethyl]-1-(difluoromethyl)pyrazole] |
| < 10 | COc1nccc(CC(c2c[nH]cn2)c2cccc(C(F)(F)F)c2C)n1 (centres unmarked) [Compound 202, 4-{2-(4-imidazolyl)-2 [3-(trifluoromethyl)-2-tolyl]ethyl}-2-methoxypyrimidine] |
| 50 to 500 | COc1c(C)cccc1C(Cc1cnco1)c1c[nH]cn1 (centres unmarked) [Compound 375, 5-[2-(4-imidazolyl)-2-(2-methoxy-3-tolyl)ethyl]-1,3-oxazole] |
| 50 to 500 | Cn1ccc2cccc(C(Cc3cocn3)c3c[nH]cn3)c21 (centres unmarked) [Compound 377, 4-[2-(4-imidazolyl)-2-(1-methyl-7-indolyl)ethyl]-1,3-oxazole] |
| 10 to 50 | Cn1ncc2c(C(Cc3cccc(CO)n3)c3c[nH]cn3)cccc21 (centres unmarked) [Compound 301, {6-[2-(4-imidazolyl)-2-(1-methyl-1H-indazol-4-yl)ethyl]-2-pyridyl}methanol] |

| Compound | EC50 [nM] |
| --- | --- |
| Cc1cccc([C@@H](Cc2cn[nH]c2)c2c[nH]cn2)c1C [Compound 232, 4-[(R)-2-(4-imidazolyl)-2-(2,3-xylyl)ethyl]pyrazole] | > 500 |
| Clc1cccc(C(Cc2cccnn2)c2c[nH]cn2)c1 (centres unmarked) [Compound 139, 3-[2-(m-chlorophenyl)-2-(4-imidazolyl)ethyl] pyridazine] | > 500 |
| Cc1cccc(C(Cc2cocn2)c2c[nH]cn2)c1F (centres unmarked) [Compound 368, 4-[2-(2-fluoro-3-tolyl)-2-(4-imidazolyl)ethyl]-1,3-oxazole] | 50 to 500 |
